Data: US20220411794A1, “RNA OLIGONUCLEOTIDES FOR PREVENTING AGGREGATION OF PROTEINS” (Universitaet Wien, priority 2019, published 2022)

Biological target: T1, human insulin (Homo sapiens, UniProt P01308)
T1 construct: purchased SIGMA
Assay: Human insulin aggregation assay (relative solubility)
Assay type: physicochemical
Settings: 86 μM insulin : 20 μM RNA (molar ratio […]:1)
Method: The insulin aggregation assay was performed in 150 mM Tris-HCl pH 7.5. Aggregation was monitored at 360 nm (excitation: 1 nm bandwidth, emission: 10 nm bandwidth) in macro-cuvettes (1500 μl) with a pathlength of 10 mm. 86 μM human insulin (SIGMA) with or without 20 μM RNA were pre-incubated at 30° C. and the aggregation reaction was started by the addition of dithiothreitol (DTT) to a final concentration of 15 mM.

T1 sequence (P01308 25-54 limits assumed): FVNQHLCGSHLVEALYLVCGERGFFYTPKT

RNA1: GUGGAGGCGCUGUACCUGGUGUGCGGAGAGCGCGGC; fragment of native own mRNA coding for insulin β-chain region VEALYLVCGERG (RNA, backbone not given here)
increase in the relative solubility of insulin: 21%
